# System: acute myeloid leukemia (TN and relapsed/refractory AML)
# Assay: Phase 2 study in AML (TN and r/r): landmark response and survival analyses
# Assay type: in vivo, human
# Protocol: In a Phase 2 study of 206 AML patients, both treatment naïve (TN), and relapsed/refractory (r/r), patients were treated with Compound I-1 using different doses and schedules. The patients were randomized either to a 5- or 10-day dosing regimen. The patients who were part of the 10-day regimen were given Compound I-1 at 60 mg/m^2/day for 1-4 cycles, then were given the 5-day regimen. The patients who were part of the 5-day regimen were randomized either to the biologically effective dose group (60 mg/m^2 daily) or the highest well tolerated dose group (90 mg/m^2 daily).
# Landmark response (CR, CRi, or CRp based on 2003 IWG criteria, grouped together as composite CR or CRc), and overall survival (OS) analyses for patients alive at or beyond month 3 and month 5 (time of planned start of cycle 4 and cycle 6, respectively) were conducted. […] The results in responding and non-responding patients were also compared to see whether survival benefit was restricted to responding patients only.
smiles,measurement,setting,value
Nc1ncn([C@H]2CC(OP(=O)(O)OC[C@H]3O[C@@H](n4cnc5c(=O)[nH]c(N)nc54)CC3O)[C@@H](CO)O2)c(=O)n1 (stereo partly shown) [Compound I-1],Median OS,"landmark, at least 4 cycles",13.7 m
same,CRc rate,"landmark, at least 4 cycles (97 patients)",62%
same,OS HR,"landmark, at least 4 cycles vs not",0.53
same,Median OS,"landmark, at least 6 cycles",19.9 m
same,CRc rate,"landmark, at least 6 cycles (51 patients)",82.4%
same,OS HR,"landmark, at least 6 cycles vs not",0.42
same,Median OS,"landmark, fewer than 4 cycles",6.1 m
same,CRc rate,"landmark, fewer than 4 cycles (64 patients)",25%
same,Median OS,"landmark, fewer than 6 cycles",8.8 m
same,CRc rate,"landmark, fewer than 6 cycles (82 patients)",35.4%
same,Median OS,"no CRc, at least 4 cycles",8 m
same,OS HR,"no CRc, at least 4 cycles vs not",0.63
same,Median OS,"no CRc, at least 6 cycles",12.9 m
same,OS HR,"no CRc, at least 6 cycles vs not",0.40
same,Median OS,"no CRc, fewer than 4 cycles",5.4 m
same,Median OS,"no CRc, fewer than 6 cycles",8 m
